Consider three molecules from US12186307B2, “Methods of treating epilepsy” (YALE UNIVERSITY, priority 2019, dated 2025).

For series [1], the system named is seizures in individuals with TSC or FCDII. As to conditions: clinical trial, cited from earlier work.
For series [2], the target named is aberrant FLNA in Alzheimer's disease (Homo sapiens, UniProt P21333). As to conditions: reported; cited from earlier work.
Series [3] relates to Rheb^CA-expressing neurons. In words: Cell placement, soma size and dendrite (Sholl) analysis in Rheb^CA mouse model of FCM. Format: in vivo, CD-1 mice. On the procedure: (§1) All experiments were performed on CD-1 mice (Charles River) of either sex.
(§2) Each DNA plasmid was diluted in sterile PBS (pH 7.4). Timed pregnant mice (embryonic day, E15) were anesthetized with isoflurane. After exposing the uterine horns, ˜1.5 μl of DNA solution, containing 0.1% fast green added as an injection tracer, was injected into the lateral ventricle via a pulled glass capillary. PBS-soaked tweezer-type electrodes (model 520, BTX) were then positioned on the head of the fetuses across the uterine wall and 6 square-pulses at […] and 50 ms duration every 950 ms were applied using a pulse generator (ECM830, BTX). At birth, mice were prescreened for successful electroporation by detecting the expression of fluorescent protein markers on a fluorescence-enabled stereo microscope (SZX16, Olympus). Morphology and seizure data in different conditions (Flna vs Luciferase shRNA or vehicle vs PTI-125 treatment) were compared between littermate mice. For most experiments, mice received unilateral electroporation, except for experiments in FIG. 4F (P8-P65 PTI-125 treatment on seizures) for which mice received bilateral electroporation.
(§3) Mice: Mice were transcardially perfused with PBS followed by 4% paraformaldehyde. Brains were then dissected and post-fixed in 4% paraformaldehyde for 24 hours before being transferred to a solution of 3% agarose solution in PBS. These were then sectioned coronally on a vibratome at a thickness of 50 μm. For immunofluorescence, free-floating sections were incubated for 1 hour in a blocking solution (2% bovine serum albumin and 0.1% Triton-X in PBS) at room temperature and then incubated with primary antibodies (Table 5) overnight at 4° C. Sections were washed with PBS+0.05% Tween 20 and then placed in blocking solution containing secondary antibodies for 1 hour at room temperature. All images were taken using an FV1000 confocal microscope (Olympus).
(§4) Quantification of the number of layer 2/3 neurons in the anterior cingulate cortex, the boundary between layer 2/3 and layer 5 was determined using ER81 staining, which labels layer 5 (FIGS. 14A-14B)Soma size was quantified by outlining the soma of GFP+ cells and measuring the area using ImageJ. Intensity of phospho-S6 and FLNA in sections was quantified by outlining somas of cells and measuring the mean gray value. Then, the values in electroporated cells (in mice) or SMI-311-positive cells (in humans) were normalized to those in non-electroporated cells or unstained cells surrounding electroporated cells to control for variability of staining between sections.
To analyze neuronal morphology and, in particular dendritic trees, only a few neurons per section were labeled using a Cre-based strategy as previously reported. More specifically, an inducible DsRed2 vector (pCAG-LoxP-stop-LoxP-DsRed2, pCALNL-DsRed2) combined with a Cre vector (pCAG-Cre) was used at very low concentration (1 ng/μl). The Cre plasmid led to DsRed expression in only 3-5 neurons per slice allowing to cleanly analyze the dendritic morphology of individual neurons (FIGS. 15A-15C)Images of DsRed-expressing basal dendrites were acquired in coronal sections using a Fluoview 1000 confocal microscope with a 20× objective. Basal dendrites were traced with simple neurite tracer software (FIJI and Neuronstudio). Sholl analyses were carried out using the number of intersections in 10-μm-increment concentric circles as a measure of morphological complexity. Z stacks from three different square fields of view were taken from three different sections. Analysis was performed blindly with more than four animals and more than 20 cells per condition (see Table 3 for actual n number).
(§5) PTI-125 was dissolved in saline at a concentration of 2.4 mg/ml. Mice received two intraperitoneal injections of 6 or 12 mg/kg PTI-125 every day. Saline was used as vehicle treatment.

Series [4] relates to phospho-S6. In words: Phospho-S6 (read-out of mTORC1 activity) immunostaining / immunoblot in mouse cortex. Format: in vivo, CD-1 mice. On the procedure: as §3, §4
Human and mouse samples were lysed in RIPA buffer (Thermo fisher, #89900) with protease/phosphatase inhibitor cocktail (Cell Signaling Technology, #5872), 5 mM EDTA, and 20 units/ml DNase I (Roche). All lysates were run on Tris-glycine gels (Bio-Rad, #456-1086 for mouse samples and #456-1046 for human samples). Proteins were transferred to PVDF and blocked in 5% milk and incubated with primary antibodies (concentrations of primary antibody are listed in Table 5). HRP-conjugated anti-rabbit or anti-mouse were used as secondary antibodies. Phosphorylated and total proteins were blotted on the same membrane after stripping (Thermo fisher, #21059). […]

In series [5] the target is native FLNA (Homo sapiens, UniProt P21333). As to conditions: reported; cited from earlier work.
Series [6] deals with Rheb^CA-expressing mice. In words: Video-EEG recording of seizures in Rheb^CA-expressing mice. Format: in vivo, CD-1 mice. On the procedure:
as §1
as §2, with “Olympus).” for “Olympus). Morphology and seizure data in different conditions (Flna vs Luciferase shRNA or vehicle vs PTI-125 treatment) were compared between littermate mice. For most experiments, mice received unilateral electroporation, except for experiments in FIG. 4F (P8-P65 PTI-125 treatment on seizures) for which mice received bilateral electroporation.”
Mice were anesthetized with isoflurane and positioned on a stereotaxic frame using ear bars. A rostro-caudal midline incision was made in the skin to expose the skull surface. Four pilot holes (two bilateral holes 1 mm anterior to bregma and two bilateral holes 5 mm posterior to bregma, each 1.5 mm lateral to sagittal suture), was tapped through the skull to dura using a microdrill (Roboz Surgical Instrument, #RS6300). […] Silver conductive paint (Electron Microscopy Science) was applied around the screw threads to ensure a solid connection with the headmount. The entire implant was insulated using dental acrylic. Mice were allowed to recover in their home cage for seven days before video-EEG monitoring.
Mice were housed in individual recording chambers in a light-, temperature- and humidity-controlled room during video-EEG monitoring. Mice were freely moving inside the chambers and had ad libitum access to food and water. Synchronous video-EEG recording was acquired using a three-channel EEG tethered system (Pinnacle Technology, cat. no. 8200-K1-iSE3) and Sirenia Acquisition software (Pinnacle Technology). Mice were continuously recorded 24 hours/day for 5-6 consecutive days or 31-45 days.
Seizure frequency and duration were analyzed using Sirenia Seizure Basic software (Pinnacle Technology). All analyses were performed blinded to experimental groups by at least two investigators. The entire EEG traces were manually reviewed for the occurrence of seizures, defined as a sudden onset of high amplitude activity with a characteristic pattern of progressive frequency and amplitude changes over the course of the event lasting≥10 sec. Seizure onset was defined by high amplitude firing>2× baseline and seizure termination was defined by a return to baseline activity. Video data were inspected for behavioral correlates including myoclonic jerks, tonic-clonic activities, convulsions, and loss of postural control (rearing and falling) and were used as secondary verification of seizures. For each individual animal, mean number of seizures per day was obtained by dividing the total number of seizures by the total number of recording hours and multiplied by 24.
Saline was used as vehicle treatment.

Series [7] is described as follows: Body weight during treatment of Rheb^CA mice. Format: in vivo, CD-1 mice. As to conditions: 12 mg/kg i.p. twice daily, P8-P60. On the procedure:
as §1, §5

Series [8] relates to Neuro2a cells. Kind of series: S6 phosphorylation immunoblot in transfected Neuro2a cells. As to conditions: in vitro, Neuro2a cells transfected with shRNA. The format is cell-based. On the procedure:
Neuro2a cells were grown at 37° C. with 5% CO2 in a complete media consisting of high glucose DMEM (Gibco, #11965-092), 5% heat-inactivated fetal bovine serum (Gibco, #16140071), and 1% penicillin-streptomycin. Cells were plated in 12 well culture plates (Corning, #0720082) and transfected when they reached ˜70% confluence. Transfection was done using PolyJet transfection reagent (Signagen, SL100688) according to the manufacturer's instructions. Cells were lysed 72 hours after transfection for all experiments.
Human and mouse samples were lysed in RIPA buffer (Thermo fisher, #89900) with protease/phosphatase inhibitor cocktail (Cell Signaling Technology, #5872), 5 mM EDTA, and 20 units/ml DNase I (Roche). All lysates were run on Tris-glycine gels (Bio-Rad, #456-1086 for mouse samples and #456-1046 for human samples). Proteins were transferred to PVDF and blocked in 5% milk and incubated with primary antibodies (concentrations of primary antibody are listed in Table 5). HRP-conjugated anti-rabbit or anti-mouse were used as secondary antibodies. Phosphorylated and total proteins were blotted on the same membrane after stripping (Thermo fisher, #21059). All density measurements were performed using NIH Image J software. In the case where cross-blot normalization was required a reference sample was loaded on each gel to account for inter-gel variability (FIGS. 11A-11B).

Where [9] appears, read: 6 mg/kg i.p. twice daily, P8 to P28.
[10] abbreviates: 12 mg/kg i.p. twice daily, P8 to P28.
Setting [11] is: treatment after seizure onset, P29 to P54.

Where “and” joins values, the source holds several entries; their conditions need not be identical. Identical values can stand only once. Entries after “also recorded” stand apart in the source; their conditions may differ.

Sequence of native FLNA (P21333 whole entry, species assumed): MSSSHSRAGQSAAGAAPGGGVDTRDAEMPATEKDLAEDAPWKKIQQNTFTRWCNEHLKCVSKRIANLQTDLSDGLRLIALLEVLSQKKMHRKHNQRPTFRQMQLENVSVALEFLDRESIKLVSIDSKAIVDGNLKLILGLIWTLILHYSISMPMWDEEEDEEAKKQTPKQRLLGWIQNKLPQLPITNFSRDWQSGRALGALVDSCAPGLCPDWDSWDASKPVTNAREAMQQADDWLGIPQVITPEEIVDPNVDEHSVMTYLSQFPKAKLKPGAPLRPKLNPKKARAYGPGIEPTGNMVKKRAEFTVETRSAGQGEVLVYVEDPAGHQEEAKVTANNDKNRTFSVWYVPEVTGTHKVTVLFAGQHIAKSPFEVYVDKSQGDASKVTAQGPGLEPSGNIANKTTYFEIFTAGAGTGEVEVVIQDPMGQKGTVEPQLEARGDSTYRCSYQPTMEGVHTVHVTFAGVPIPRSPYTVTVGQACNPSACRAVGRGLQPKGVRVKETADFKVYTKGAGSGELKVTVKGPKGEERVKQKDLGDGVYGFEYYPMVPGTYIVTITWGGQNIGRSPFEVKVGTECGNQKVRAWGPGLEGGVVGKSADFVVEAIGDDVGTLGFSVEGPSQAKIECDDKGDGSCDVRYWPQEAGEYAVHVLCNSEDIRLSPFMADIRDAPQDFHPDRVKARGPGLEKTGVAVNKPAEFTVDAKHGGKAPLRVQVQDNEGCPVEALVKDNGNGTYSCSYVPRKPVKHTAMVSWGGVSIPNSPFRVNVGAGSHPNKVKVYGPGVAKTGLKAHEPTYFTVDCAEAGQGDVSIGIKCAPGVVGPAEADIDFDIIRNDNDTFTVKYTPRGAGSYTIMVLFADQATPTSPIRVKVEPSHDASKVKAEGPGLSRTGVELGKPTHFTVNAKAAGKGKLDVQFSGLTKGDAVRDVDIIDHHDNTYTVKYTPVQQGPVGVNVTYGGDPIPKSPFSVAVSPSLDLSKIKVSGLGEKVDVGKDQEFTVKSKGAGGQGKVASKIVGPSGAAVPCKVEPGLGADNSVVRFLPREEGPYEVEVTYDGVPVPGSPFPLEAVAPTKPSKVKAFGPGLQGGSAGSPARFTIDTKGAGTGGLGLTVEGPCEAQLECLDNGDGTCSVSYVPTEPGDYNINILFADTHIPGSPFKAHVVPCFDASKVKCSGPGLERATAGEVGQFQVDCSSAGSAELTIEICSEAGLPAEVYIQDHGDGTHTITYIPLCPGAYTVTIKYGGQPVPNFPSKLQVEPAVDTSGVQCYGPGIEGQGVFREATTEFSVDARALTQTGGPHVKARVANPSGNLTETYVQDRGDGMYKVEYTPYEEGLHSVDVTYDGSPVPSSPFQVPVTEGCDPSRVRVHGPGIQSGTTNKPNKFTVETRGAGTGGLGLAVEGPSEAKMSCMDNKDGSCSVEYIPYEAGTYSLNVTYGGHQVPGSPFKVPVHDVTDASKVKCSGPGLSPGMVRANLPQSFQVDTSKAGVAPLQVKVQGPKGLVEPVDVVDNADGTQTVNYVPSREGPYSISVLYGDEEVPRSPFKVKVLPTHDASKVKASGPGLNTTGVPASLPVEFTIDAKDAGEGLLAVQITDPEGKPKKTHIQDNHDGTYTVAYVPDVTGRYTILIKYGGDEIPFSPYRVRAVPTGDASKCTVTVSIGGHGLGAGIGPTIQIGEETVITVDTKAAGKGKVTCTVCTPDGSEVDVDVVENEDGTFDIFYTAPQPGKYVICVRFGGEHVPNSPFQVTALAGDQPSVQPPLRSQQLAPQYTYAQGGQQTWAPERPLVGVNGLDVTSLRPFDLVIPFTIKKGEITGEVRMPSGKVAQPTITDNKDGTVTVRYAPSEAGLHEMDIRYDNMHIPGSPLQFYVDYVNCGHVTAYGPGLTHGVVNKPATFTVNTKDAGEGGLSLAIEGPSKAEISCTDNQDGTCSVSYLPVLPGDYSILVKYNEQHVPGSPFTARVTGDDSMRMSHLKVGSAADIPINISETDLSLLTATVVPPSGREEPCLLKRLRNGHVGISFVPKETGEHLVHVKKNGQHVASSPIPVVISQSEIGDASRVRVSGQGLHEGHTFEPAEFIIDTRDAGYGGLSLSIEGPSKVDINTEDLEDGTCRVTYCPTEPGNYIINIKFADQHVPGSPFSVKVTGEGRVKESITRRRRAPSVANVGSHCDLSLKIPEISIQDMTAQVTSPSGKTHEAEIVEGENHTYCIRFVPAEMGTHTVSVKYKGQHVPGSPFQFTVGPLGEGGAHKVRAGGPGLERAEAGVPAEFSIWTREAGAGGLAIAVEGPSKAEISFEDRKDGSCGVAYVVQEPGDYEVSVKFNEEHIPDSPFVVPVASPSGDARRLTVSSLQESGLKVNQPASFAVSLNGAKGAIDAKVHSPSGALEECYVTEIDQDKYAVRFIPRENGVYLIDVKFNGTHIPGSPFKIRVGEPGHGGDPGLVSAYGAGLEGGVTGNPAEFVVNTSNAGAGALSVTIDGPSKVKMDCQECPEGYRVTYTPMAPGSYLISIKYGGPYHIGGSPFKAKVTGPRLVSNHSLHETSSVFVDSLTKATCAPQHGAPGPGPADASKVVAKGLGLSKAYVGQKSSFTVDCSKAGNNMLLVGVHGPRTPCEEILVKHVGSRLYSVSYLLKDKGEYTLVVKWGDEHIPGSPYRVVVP
Sequence of aberrant FLNA in Alzheimer's disease (P21333 whole entry): as the sequence (P21333 whole entry, species assumed) above

`CO[C@H]1C[C@@H]2CC[C@@H](C)[C@@](O)(O2)C(=O)C(=O)N2CCCC[C@H]2C(=O)O[C@H]([C@H](C)C[C@@H]2CC[C@@H](OCCO)[C@H](OC)C2)CC(=O)[C@H](C)/C=C(\C)[C@@H](O)[C@@H](OC)C(=O)[C@H](C)C[C@H](C)/C=C/C=C/C=C/1C` [everolimus]: the “patients with reduced seizure frequency” value in series [1] (highest dose) is given as 40%. Also, in series [1], the “patients who saw no improvements” value is 60% and the side-effects result was “had side-effects”.

As to `CN1CCC2(CC1)NCC(=O)N2Cc1ccccc1` [PTI-125], the “affinity for aberrant FLNA in Alzheimer's disease” value in series [2] is reported as “femtomolar”. In addition, the dendritic dysmorphogenesis entry in series [3] (setting [9]) is “partially rescued”; in series [3] (setting [10]), “partially rescued”; in series [3] (setting [11]), “partially, but significantly, rescued”. Besides, the neuronal soma size entry in series [3] (setting [9]) and in series [3] (setting [10]) was “partially rescued” each time. In addition, the increased soma size entry in series [3] (setting [11]) was “partially, but significantly, rescued”. Further, in series [3] (treatment starting at P8, 12 mg/kg, brain sections from recorded mice), the “cell misplacement (neuronal placement)” value is given as “not affected; also recorded: did not rescue”. The “phospho-S6 expression in the cortex” value in series [4] (nonelectroporated mice, 12 mg/kg) is listed as “not affected”. Also, the “phospho-S6 intensity in brain sections” value in series [4] (recorded Rheb^CA mice, 12 mg/kg P8-P65) was “not affected”. Further, the “affinity for native FLNA” value in series [5] is “picomolar”. For the same molecule, the seizure frequency in series [6] (12 mg/kg i.p. twice daily P8-P65, recorded P61 to P66, vehicle 5.1) was 1.4 seizures/day; in series [6] (treatment P29 to P54, recorded P50-P54, vehicle 2.7) it was 0.84 seizures/day. Besides, in series [6] (FIG. 6A, all treatments combined, vehicle 3/29), the “Number of mice without/with seizures per condition” value is 11/32. Further, the “overall reduction in seizure frequency compared to vehicle-treated littermates” value in series [6] (all PTI-125 treatments combined (n=32 vs n=27)) turned out to be 66%. Further, the seizure-free mice in series [6] (all PTI-125 treatments combined, vehicle 11%) came to 35%. The “lowering of seizure frequency compared to vehicle-treated mice” value in series [6] (treatment P29 to P54, recorded P50-P54) was 69% and 67%. The “reduction of seizure frequency” value in series [6] (treatment prior to seizure onset, 12 mg/kg P8-P65, vs vehicle) is recorded as 73%. In series [6] (young adult mice (P61-P106), 33-day treatment), the “reduction in seizure frequency prior to vs after treatment in the same mice” value is given as 60%. Moreover, the “change of seizure frequency over time” value in series [6] (young adult mice switched from vehicle to PTI-125 after 12 days of recordings, 20-day treatment) was “did not have the increase in seizure frequency observed in the vehicle group”. Besides, the mean seizure frequency in series [6] (young adult mice, after 33-day treatment, 3.9 prior to treatment) stood at 1.6 seizures/day. For the same molecule, the body weight result in series [7] is listed as “did not affect”.

For “Flna shRNA: short hairpin RNA against Flna, expressed from plasmid; sequence 5′ CCTATGAAGCTGGAACCTATA 3′ (expressed from plasmid pCGLH)”, in series [8], the “Rheb^CA-induced increased S6 phosphorylation” value was “did not reduce”. For the same molecule, the total dendritic length in series [3] (Rheb^CA neurons co-expressing shRNA by E15 IUE, P28, 194% with control shRNA) is on record as 130 % of control. In series [3] (Rheb^CA neurons co-expressing shRNA by E15 IUE, P28, 372% with control shRNA), the soma size was 250 % of control. Further, the “misplaced cells (neuronal misplacement)” value in series [3] (Rheb^CA neurons co-expressing shRNA by E15 IUE, analysed at P28, 50% with control shRNA, 2% in control) turned out to be 23%. Further, the “increased phospho-S6 intensity in vivo” value in series [4] (GFP+ Rheb^CA-expressing neurons in EEG-recorded mice) was “did not prevent”. In series [6] (out of 10 mice, 4 out of 16 died in the control group), the death of mice entry is listed as “no mice died”. Besides, the “lowering of seizure frequency compared to luciferase shRNA” value in series [6] (video-EEG for 5 days starting at P61) is recorded as 83%. This molecule showed a mean seizure frequency in series [6] (video-EEG for 5 days starting at P61, 12.6 with luciferase shRNA) of 2.2 seizures/day.
